This is an account of results in patent US20240067632A1, “WEE1 Degrading Compounds and Uses Thereof” (Bristol-Myers Squibb Company, priority 2022, published 2024).

As usually defined, the EC50 is the midpoint of the concentration-response curve.

Like-named read-outs stand apart in the source and are kept apart here.

One assay addresses T1, WEE1 (Homo sapiens, UniProt P30291+Q96SW2).
T1 construct: C-terminal ePL-tagged (DiscoverX, Fremont, CA) full-length WEE1 expression construct; expressed in transfected cells; host or cells: LentiX-HEK293T (Invitrogen), lentiviral transduction; co-expressing GSPT1-GN (G576N, lacking the first 158 amino acids)
Briefly: WEE1-ePL degradation assay (LentiX-WEE1-ePL-GSPT1-ND cells, InCELL Hunter luminescence, 4 h). The class given is cell-based. The conditions noted are these: 293T-LentiX WEE1-ePL cells; for DC50: read-out: 293T-LentiX WEE1-ePL Degradation 4 hr (EC50). In short, it runs like this:
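Luminescent readout (InCELL Hunter, 30 min RT) of WEE1-ePL levels in transduced HEK293T cells after 4 h compound exposure at 37 °C. Dosing: 10 points, 3-fold steps, top 1 uM or 10 uM. EC50 from four-parameter logistic fit; Ymax set by DMSO.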

A further assay relates to MKN45 cells. The experiment in a line: MKN45 cell proliferation assay (Cell-Titer-Glo, 120 h). The class given is cell-based. To be noted: for EC50: Cell-Titer-Glo, read-out: MKN45 Cell Prolif. 120 hr (EC50); for MKN45 Cell Prolif. 120 hr (Ymin-Obs): minimal percent of DMSO control observed in the concentrations tested. Put shortly: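 Cells seeded at 400/well onto pre-printed 10-point half-log dilutions (top 1 or 10 uM, 0.1% DMSO final), in triplicate, and grown 120 h at 37 C. Viability by Cell-Titer-Glo luminescence, blank-subtracted and normalised to DMSO; EC50 from four-parameter logistic fit, with observed minimal % of control recorded as Ymin-obs.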

Where [1] appears, read: lower limit of the fit (0 = luciferase inhibitor, Ymax = DMSO control).
Setting [2] is: Homo sapiens, MKN-45, 120 h, growth inhibition.
The mark [3] stands for this setting: lower limit of the fit (Ymin=0 luciferase inhibitor, Ymax DMSO control).

For `COC1CCN(c2ccc3cc(CN4CC[C@H](Oc5ccc6c(c5)CN(C5CCC(=O)NC5=O)C6=O)C4)ccc3n2)CC1` (stereo partly drawn) [3-(5-{[(3S)-1-{[2-(4-methoxypiperidin-1-yl)quinolin-6-yl]methyl}pyrrolidin-3-yl]oxy}-1-oxo-2,3-dihydro-1H-isoindol-2-yl)piperidine-2,6-dione], at WEE1 (setting [1]), the “293T-LentiX WEE1-ePL Degradation 4 hr (Ymin)” value came out at 30.5. Moreover, the DC50 on WEE1 is 2.49 nM. Further, the EC50 in the assay on MKN45 cells (setting [2]) stood at 3.75 nM. For the same molecule, the “MKN45 Cell Prolif. 120 hr (Ymin-Obs)” value in the assay with MKN45 cells was 9.39.
For `O=C1CCC(N2Cc3ccc(O[C@H]4CCN(Cc5ccc6ncccc6c5)C4)cc3C2=O)C(=O)N1` (stereo partly drawn) [3-(1-oxo-6-{[(3S)-1-[(quinolin-6-yl)methyl]pyrrolidin-3-yl]oxy}-2,3-dihydro-1H-isoindol-2-yl)piperidine-2,6-dione], on WEE1 (setting [1]), the “293T-LentiX WEE1-ePL Degradation 4 hr (Ymin)” value was 88.79. For the same molecule, the EC50 in the assay on MKN45 cells (setting [2]) is 14.6 nM. The “MKN45 Cell Prolif. 120 hr (Ymin-Obs)” value in the assay with MKN45 cells is given as 82.37.
For the molecule `CO[C@H]1C[C@H](c2ccc3cc(CN4CC[C@H](Oc5ccc6c(c5)CN(C5CCC(=O)NC5=O)C6=O)C4)ccc3n2)C1` (stereo partly drawn) [drawing 579, 3-(1-oxo-5-{[(3S)-1-({2-[(1r,3r)-3-methoxycyclobutyl]quinolin-6-yl}methyl)pyrrolidin-3-yl]oxy}-2,3-dihydro-1H-isoindol-2-yl)piperidine-2,6-dione], the “293T-LentiX WEE1-ePL Degradation 4 hr (Ymin)” value at WEE1 (setting [1]) is 21.76. The DC50 at WEE1 stood at 12.8 nM. In the assay on MKN45 cells (growth inhibition), the EC50 was determined as 4.89 nM. The “MKN45 Cell Prolif. 120 hr (Ymin-Obs)” value with MKN45 cells amounted to 8.615.
Turning to `Cc1cc(C#N)c2cc(CN3CC[C@H](Oc4ccc5c(c4)CN(C4CCC(=O)NC4=O)C5=O)C3)ccc2n1` (stereo partly drawn) [6-{[(3S)-3-{[2-(2,6-dioxopiperidin-3-yl)-1-oxo-2,3-dihydro-1H-isoindol-5-yl]oxy}pyrrolidin-1-yl]methyl}-2-methylquinoline-4-carbonitrile], on WEE1 (setting [1]), the “293T-LentiX WEE1-ePL Degradation 4 hr (Ymin)” value stood at 66.8. Moreover, on WEE1, the DC50 was determined as 20.7 nM. Besides, in the assay on MKN45 cells (setting [2]), the EC50 is > 10000 nM. For the same molecule, the “MKN45 Cell Prolif. 120 hr (Ymin-Obs)” value in the assay on MKN45 cells came to 86.89.
On to `O=C1CCC(N2Cc3cc(O[C@H]4CCN(Cc5ccc6nc([C@H]7CC[C@H](O)C7)ccc6c5)C4)ccc3C2=O)C(=O)N1` (stereo partly drawn) [3-(5-{[(3S)-1-({2-[(1S,3S)-3-hydroxycyclopentyl]quinolin-6-yl}methyl)pyrrolidin-3-yl]oxy}-1-oxo-2,3-dihydro-1H-isoindol-2-yl)piperidine-2,6-dione], for which the “293T-LentiX WEE1-ePL Degradation 4 hr (Ymin)” value at WEE1 (setting [1]) stood at 27.5. Besides, the DC50 at WEE1 stood at 2.67 nM. In addition, the EC50 in the assay on MKN45 cells (setting [2]) was determined as 3.24 nM. Moreover, in the assay on MKN45 cells, the “MKN45 Cell Prolif. 120 hr (Ymin-Obs)” value worked out at 8.695.
On the same counts, the results for `[2H]c1nc2ccc(CN3CCC(Oc4ccc5c(c4)CN(C4CCC(=O)NC4=O)C5=O)C3)cc2cc1F` [3-(5-{[(3S)-1-{[3-fluoro(2-^2H)quinolin-6-yl]methyl}pyrrolidin-3-yl]oxy}-1-oxo-2,3-dihydro-1H-isoindol-2-yl)piperidine-2,6-dione] are 35, 3.57 nM, 94.9 nM and 21.68.
For `C[C@@H]1c2cc(O[C@H]3CCN(Cc4ccc5nc(C6CCOCC6)ccc5c4)C3)ccc2C(=O)N1[C@H]1CCC(=O)NC1=O` [(3S)-3-[(3R)-3-methyl-5-{[(3S)-1-{[2-(oxan-4-yl)quinolin-6-yl]methyl}pyrrolidin-3-yl]oxy}-1-oxo-2,3-dihydro-1H-isoindol-2-yl]piperidine-2,6-dione], the “293T-LentiX WEE1-ePL Degradation 4 hr (Ymin)” value on WEE1 (setting [3]) was 42.32. The DC50 at WEE1 came out at 2.67 nM. Also, in the assay with MKN45 cells (Homo sapiens, MKN-45, 120 h), the EC50 was 17.8 nM. Also, the “MKN45 Cell Prolif. 120 hr (Ymin-Obs)” value with MKN45 cells worked out at 20.63.
On the same counts, the results for `COC[C@@H]1CN(Cc2ccc3nc(C4CCOCC4)ccc3c2)C[C@H]1Oc1ccc2c(c1)CN(C1CCC(=O)NC1=O)C2=O` (stereo partly drawn) [3-(5-{[(3S,4S)-4-(methoxymethyl)-1-{[2-(oxan-4-yl)quinolin-6-yl]methyl}pyrrolidin-3-yl]oxy}-1-oxo-2,3-dihydro-1H-isoindol-2-yl)piperidine-2,6-dione] are 29.16, 3.08 nM, 1.89 nM and 9.504.
On to `O=C1CCC(N2Cc3cc(O[C@H]4CCN(Cc5cnc6ccc(F)cc6c5)C4)ccc3C2=O)C(=O)N1` (stereo partly drawn) [3-(5-{[(3S)-1-[(6-fluoroquinolin-3-yl)methyl]pyrrolidin-3-yl]oxy}-1-oxo-2,3-dihydro-1H-isoindol-2-yl)piperidine-2,6-dione], for which the “293T-LentiX WEE1-ePL Degradation 4 hr (Ymin)” value on WEE1 (setting [1]) stood at 30.015. Besides, the DC50 at WEE1 is 9.19 nM. The half-maximal effective concentration (EC50) with MKN45 cells (setting [2]) turned out to be 64.5 nM. For the same molecule, the “MKN45 Cell Prolif. 120 hr (Ymin-Obs)” value in the assay with MKN45 cells was 16.03.
On the same counts, the results for `CC#Cc1ncc2cc(CN3CC[C@H](Oc4ccc5c(c4)CN(C4CCC(=O)NC4=O)C5=O)C3)ccc2n1` (stereo partly drawn) [3-(1-oxo-5-{[(3S)-1-{[2-(prop-1-yn-1-yl)quinazolin-6-yl]methyl}pyrrolidin-3-yl]oxy}-2,3-dihydro-1H-isoindol-2-yl)piperidine-2,6-dione] are 29, 38.9 nM, 51.6 nM and 8.56.
The matching figures for `Cc1ccc2ncc(CN3CC[C@H](Oc4ccc5c(c4)CN(C4CCC(=O)NC4=O)C5=O)C3)cc2c1` (stereo partly drawn) [3-(5-{[(3S)-1-[(6-methylquinolin-3-yl)methyl]pyrrolidin-3-yl]oxy}-1-oxo-2,3-dihydro-1H-isoindol-2-yl)piperidine-2,6-dione]: 29.6, 9.38 nM, 33.6 nM and 13.08.
The matching figures for `O=C1CCC(N2Cc3cc(O[C@H]4CCN(Cc5ccc6nc(CO)ccc6c5)C4)ccc3C2=O)C(=O)N1` (stereo partly drawn) [3-(5-{[(3S)-1-{[2-(hydroxymethyl)quinolin-6-yl]methyl}pyrrolidin-3-yl]oxy}-1-oxo-2,3-dihydro-1H-isoindol-2-yl)piperidine-2,6-dione]: 31.475, 9.39 nM, 54.4 nM and 11.84.
`N#Cc1nc2ccccc2cc1CN1CC[C@H](Oc2ccc3c(c2)CN(C2CCC(=O)NC2=O)C3=O)C1` (stereo partly drawn) [3-{[(3S)-3-{[2-(2,6-dioxopiperidin-3-yl)-1-oxo-2,3-dihydro-1H-isoindol-5-yl]oxy}pyrrolidin-1-yl]methyl}quinoline-2-carbonitrile]: the “293T-LentiX WEE1-ePL Degradation 4 hr (Ymin)” value on WEE1 (setting [1]) worked out at 29. In addition, at WEE1, the DC50 stood at 1.2 nM. In addition, the EC50 with MKN45 cells (setting [2]) was found to be 5.83 nM. For the same molecule, the “MKN45 Cell Prolif. 120 hr (Ymin-Obs)” value in the assay with MKN45 cells is given as 6.985.
On the same counts, the results for `CNC(=O)c1ccc2cc(CN3CC[C@H](Oc4ccc5c(c4)CN(C4CCC(=O)NC4=O)C5=O)C3)ncc2c1` (stereo partly drawn) [3-{[(3S)-3-{[2-(2,6-dioxopiperidin-3-yl)-1-oxo-2,3-dihydro-1H-isoindol-5-yl]oxy}pyrrolidin-1-yl]methyl}-N-methylisoquinoline-7-carboxamide] are 28, 29.8 nM, 66.8 nM and 7.51.
Regarding `CNC1CCN(c2ccc3cc(CN4CC[C@H](Oc5ccc6c(c5)CN(C5CCC(=O)NC5=O)C6=O)C4)ccc3n2)CC1` (stereo partly drawn) [3-(5-{[(3S)-1-({2-[4-(methylamino)piperidin-1-yl]quinolin-6-yl}methyl)pyrrolidin-3-yl]oxy}-1-oxo-2,3-dihydro-1H-isoindol-2-yl)piperidine-2,6-dione], at WEE1 (setting [3]), the “293T-LentiX WEE1-ePL Degradation 4 hr (Ymin)” value was 38.12. Further, on WEE1, the DC50 amounted to 64.4 nM. For the same molecule, the EC50 with MKN45 cells (Homo sapiens, MKN-45, 120 h) amounted to 84.9 nM. Further, the “MKN45 Cell Prolif. 120 hr (Ymin-Obs)” value in the assay with MKN45 cells is 25.09.
Regarding `O=C1CCC(N2Cc3cc(O[C@H]4CCN(Cc5ccc6nc(C7COC7)ncc6c5)C4)ccc3C2=O)C(=O)N1` (stereo partly drawn) [3-(5-{[(3S)-1-{[2-(oxetan-3-yl)quinazolin-6-yl]methyl}pyrrolidin-3-yl]oxy}-1-oxo-2,3-dihydro-1H-isoindol-2-yl)piperidine-2,6-dione], the “293T-LentiX WEE1-ePL Degradation 4 hr (Ymin)” value at WEE1 (setting [1]) is 30. Also, the DC50 at WEE1 was 16.8 nM. Also, the EC50 in the assay on MKN45 cells (setting [2]) was determined as 16.7 nM. For the same molecule, the “MKN45 Cell Prolif. 120 hr (Ymin-Obs)” value in the assay with MKN45 cells is 7.8.
The matching figures for `O=C1CCC(N2Cc3cc(O[C@H]4CCN(Cc5ccc6nc(N7CC[C@]78CCOC8)ccc6c5)C4)ccc3C2=O)C(=O)N1` (stereo partly drawn) [3-(5-{[(3S)-1-({2-[(4R)-6-oxa-1-azaspiro[3.4]octan-1-yl]quinolin-6-yl}methyl)pyrrolidin-3-yl]oxy}-1-oxo-2,3-dihydro-1H-isoindol-2-yl)piperidine-2,6-dione]: 42, 5.38 nM, 5.4 nM and 7.715.
